Reference: patent US4705784A, “Cephem compounds” (Sumitomo Pharmaceuticals Company, Limited, priority 1983, dated 1987)
≈ marks a conversion by molar mass, not a printed value.

Key:
Enterobacter aerogenes = experiment: Antimicrobial activity test, Enterobacter aerogenes; format: cell-based; conditions: Klebsiella aerogenes
Escherichia coli = experiment: Antimicrobial activity test, Escherichia coli; format: cell-based
Serratia marcescens = experiment: Antimicrobial activity test, Serratia marcescens; format: cell-based
[1] = tested on: Staphylococcus epidermidis; experiment: Antimicrobial activity test, Staphylococcus epidermidis; format: cell-based
Proteus mirabilis = experiment: Antimicrobial activity test, Proteus mirabilis; format: cell-based
[2] = Oral dosage absorbability: urinary excretion rate after oral administration, rat; format: in vivo; conditions: urine, dose: 50 mg/kg
Method: (§1) Results of oral dosage absorbability tests
(§2) Urinary excretion rate after oral
(§3) Test compd. administration (dose: 50 mg/kg)

[3] = Oral dosage absorbability: urinary excretion rate after oral administration, mouse; format: in vivo; conditions: urine, dose: 50 mg/kg
Method: as §1, §2, §3

bacteria = conditions: cephem antibiotics in use for oral administration; cited from earlier work
[4] = tested on: β-lactamase producing resistant bacteria; conditions: cephem antibiotics in use for oral administration; cited from earlier work

Row | SMILES | MIC (Enterobacter aerogenes) [µg/mL] | MIC (Escherichia coli) [µg/mL] | MIC (Serratia marcescens) [µg/mL] | MIC [1] [µg/mL] | MIC (Proteus mirabilis) [µg/mL] | dose excreted [2] [%] | dose excreted [3] [%] | antimicrobial activity and width of antimicrobial spectrum (bacteria) | effect on β-lactamase producing resistant bacteria [4]
1 | CO/N=C(\C(=O)NC1C(=O)N2C(C(=O)OCOC(=O)C(C)(C)C)=C(COC(N)=O)CS[C@H]12)c1cscn1 (some centres unmarked) [Example 5, Pivaloyloxymethyl 7-[(Z)-2-methoxyimino-2-(thiazol-4-yl)acetamido]-3-carbamoyloxymethyl-3-cephem-4-carboxylate] | – | – | – | – | – | 30 | 64 | – | –
2 | N[C@@H](C(=O)N[C@@H]1C(=O)N2C(C(=O)O)=C(Cl)CS[C@H]12)c1ccccc1 [cefaclor] | – | – | – | – | – | – | – | slightly inferior | ineffective
3 | N[C@@H](C(=O)N[C@@H]1C(=O)N2C(C(=O)O)=C(CSc3c[nH]nn3)CS[C@H]12)c1ccc(O)cc1 [cefatrizine] | – | – | – | – | – | – | – | slightly inferior | ineffective
4 | CC1=C(C(=O)O)N2C(=O)[C@@H](NC(=O)[C@H](N)c3ccccc3)[C@H]2SC1 [cephalexin] | – | – | – | – | – | – | – | slightly inferior | ineffective

Now from value to molecule, other results behind:

Row | MIC (Enterobacter aerogenes) [µg/mL] | MIC (Escherichia coli) [µg/mL] | MIC (Serratia marcescens) [µg/mL] | MIC [1] [µg/mL] | MIC (Proteus mirabilis) [µg/mL] | dose excreted [2] [%] | dose excreted [3] [%] | SMILES | antimicrobial activity and width of antimicrobial spectrum (bacteria) | effect on β-lactamase producing resistant bacteria [4]
5 | 0.39 (≈ 0.883 µM) | 0.05 (≈ 0.113 µM) | 1.56 (≈ 3.53 µM) | 1.56 (≈ 3.53 µM) | ≤ 0.013 | – | – | CO/N=C(\C(=O)NC1C(=O)N2C(C(=O)O)=C(COC(N)=O)CS[C@H]12)c1cscn1 (some centres unmarked) [Example 1, 7-[(Z)-2-Methoxyimino-2-(thiazol-4-yl)acetamido]-3-carbamoyloxymethyl-3-cephem-4-carboxylic acid] | – | –
6 | 0.78 (≈ 1.71 µM) | 0.2 (≈ 0.439 µM) | 3.13 (≈ 6.87 µM) | 3.13 (≈ 6.87 µM) | 0.05 (≈ 0.11 µM) | – | – | CCO/N=C(\C(=O)NC1C(=O)N2C(C(=O)O)=C(COC(N)=O)CSC12)c1cscn1 (centres unmarked) [Example 10] | – | –
7 | 1.56 (≈ 3.65 µM) | 0.39 (≈ 0.912 µM) | 3.13 (≈ 7.32 µM) | 1.56 (≈ 3.65 µM) | 0.78 (≈ 1.82 µM) | – | – | NC(=O)OCC1=C(C(=O)O)N2C(=O)C(NC(=O)/C(=N\O)c3cscn3)[C@H]2SC1 (some centres unmarked) [Example 16, 7-[(Z)-2-hydroxyimino-2-(thiazol-4-yl)acetamido]-3-carbamoyloxymethyl-3-cephem-4-carboxylic acid] | – | –
